Measurements: patent US11642348B2, “Substituted benzene compounds” (Epizyme, Inc., priority 2012, dated 2023)
pIC50: −log10 of the molar value. Where two headings read alike, the source gives them in different places.

Key:
[1] = test system: H3K27me3 in WSU-DLCL2 cells; experiment: WSU-DLCL2 methylation assay (H3K27me3 ELISA); format: cell-based; settings: Homo sapiens, 96 hours
From the text: WSU-DLCL2 suspension cells were purchased from DSMZ (German Collection of Microorganisms and Cell Cultures, Braunschweig, Germany). RPMI/Glutamax Medium, Penicillin-Streptomycin, Heat Inactivated Fetal Bovine Serum, and D-PBS were purchased from Life Technologies, Grand Island, N.Y., USA. Extraction Buffer and Neutralization Buffer (5×) were purchased from Active Motif, Carlsbad, Calif., USA. Rabbit anti-Histone H3 antibody was purchased from Abcam, Cambridge, Mass., USA. Rabbit anti-H3K27me3 and HRP-conjugated anti-rabbit-IgG were purchased from Cell Signaling Technology, Danvers, Mass., USA. TMB “Super Sensitive” substrate was sourced from BioFX Laboratories, Owings Mills, Md., USA. IgG-free Bovine Serum Albumin was purchased from Jackson ImmunoResearch, West Grove, Pa., USA. PBS with Tween (10×PBST) was purchased from KPL, Gaithersburg, Md., USA. Sulfuric Acid was purchased from Ricca Chemical, Arlington, Tex., USA. Immulon ELISA plates were purchased from Thermo, Rochester, N.Y., USA. V-bottom cell culture plates were purchased from Corning Inc., Corning, N.Y., USA. V-bottom polypropylene plates were purchased from Greiner Bio-One, Monroe, N.C., USA.
WSU-DLCL2 cells were seeded in assay medium at a concentration of 50,000 cells per mL to a 96-well V-bottom cell culture plate with 200 μL per well. […] Plates were incubated on a titer-plate shaker at 37° C., 5% CO2 for 96 hours. After four days of incubation, plates were spun at 241×g for five minutes and medium was aspirated gently from each well of cell plate without disturbing cell pellet. Pellet was resuspended in 200 μL DPBS and plates were spun again at 241×g for five minutes. The supernatant was aspirated and cold (4° C.) Extraction buffer (100 μL) was added per well. Plates were incubated at 4° C. on orbital shaker for two hours. […] Supernatant (80 μL per well) was transferred to its respective well in 96 well V-bottom polypropylene plate. Neutralization Buffer 5× (20 μL per well) was added to V-bottom polypropylene plate containing supernatant. V-bottom polypropylene plates containing crude histone preparation (CHP) were incubated on orbital shaker×five minutes. Crude Histone Preparations were added (2 μL per well) to each respective well into duplicate 96 well ELISA plates containing 100 μL Coating Buffer (1×PBS+BSA 0.05% w/v). Plates were sealed and incubated overnight at 4° C. The following day, plates were washed three times with 300 μL per well 1×PBST. […] For H3K27me3 detection, 100 μL of HRP conjugated anti-rabbit IgG antibody diluted to 1:4000 in ELISA diluent was added per well. Plates were incubated at room temperature for 90 minutes. […] TMB substrate 100 μL was added per well. Histone H3 plates were incubated for five minutes at room temperature. H3K27me3 plates were incubated for 10 minutes at room temperature. The reaction was stopped with sulfuric acid 1N (100 μL per well). Absorbance for each plate was read at 450 nm.
Each plate included eight control wells of DMSO only treatment (Minimum Inhibition) as well as eight control wells for maximum inhibition (Background wells).
The average of the ratio values for each control type was calculated and used to determine the percent inhibition for each test well in the plate. […] Percent inhibition was determined and IC50 curves were generated using duplicate wells per concentration of compound.

[2] = test system: WSU-DLCL2 cells; experiment: Cell proliferation analysis (WSU-DLCL2, Cell Titer Glo); format: cell-based; settings: Homo sapiens, 6 days
From the text: Cell Proliferation Analysis
WSU-DLCL2 suspension cells were purchased from DSMZ (German Collection of Microorganisms and Cell Cultures, Braunschweig, Germany). RPMI/Glutamax Medium, Penicillin-Streptomycin, Heat Inactivated Fetal Bovine Serum were purchased from Life Technologies, Grand Island, N.Y., USA. V-bottom polypropylene 384-well plates were purchased from Greiner Bio-One, Monroe, N.C., USA. Cell culture 384-well white opaque plates were purchased from Perkin Elmer, Waltham, Mass., USA. Cell-Titer Glo® was purchased from Promega Corporation, Madison, Wis., USA. SpectraMax M5 plate reader was purchased from Molecular Devices LLC, Sunnyvale, Calif., USA.
A compound source plate was prepared by performing triplicate nine-point 3-fold serial dilutions in DMSO, beginning at 10 mM (final top concentration of compound in the assay was 20 μM and the DMSO was 0.2%). A 100 nL aliquot from the compound stock plate was added to its respective well in the cell plate. […] After addition of compounds, assay plates were incubated for 6 days at 37° C., 5% CO2, relative humidity >90% for 6 days. Cell viability was measured by quantization of ATP present in the cell cultures, adding 35 μl of Cell Titer Glo® reagent to the cell plates. Luminescence was read in the SpectraMax M5. The concentration inhibiting cell viability by 50% was determined using a 4-parametric fit of the normalized dose response curves.

[3] = target: wild-type EZH2 (PRC2 complex) (Homo sapiens (Human), UniProt Q15910); experiment: PRC2 enzyme assay on peptide substrates (wild-type EZH2)
Sequence of wild-type EZH2 (PRC2 complex) (Q15910 other isoform, or with tags, fused parts or gaps): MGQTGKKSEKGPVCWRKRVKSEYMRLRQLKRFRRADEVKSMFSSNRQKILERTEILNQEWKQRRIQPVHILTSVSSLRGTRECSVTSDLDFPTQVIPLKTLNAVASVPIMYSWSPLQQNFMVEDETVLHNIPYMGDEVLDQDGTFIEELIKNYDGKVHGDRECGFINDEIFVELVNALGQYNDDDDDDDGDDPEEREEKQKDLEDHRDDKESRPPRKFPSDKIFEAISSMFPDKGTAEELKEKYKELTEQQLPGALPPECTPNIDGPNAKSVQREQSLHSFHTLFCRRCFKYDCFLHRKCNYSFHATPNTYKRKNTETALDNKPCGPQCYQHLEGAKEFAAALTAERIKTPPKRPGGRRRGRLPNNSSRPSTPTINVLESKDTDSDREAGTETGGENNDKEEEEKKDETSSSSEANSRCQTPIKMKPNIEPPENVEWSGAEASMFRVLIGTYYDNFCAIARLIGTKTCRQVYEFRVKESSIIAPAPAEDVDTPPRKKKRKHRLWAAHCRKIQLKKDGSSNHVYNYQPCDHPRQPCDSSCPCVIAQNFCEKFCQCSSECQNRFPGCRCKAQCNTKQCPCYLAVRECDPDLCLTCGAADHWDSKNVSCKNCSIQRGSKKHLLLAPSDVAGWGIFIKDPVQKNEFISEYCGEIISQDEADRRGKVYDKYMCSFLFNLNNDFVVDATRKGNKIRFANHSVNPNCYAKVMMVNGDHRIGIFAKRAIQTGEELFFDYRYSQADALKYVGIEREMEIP
Sequence of wild-type EZH2 (PRC2 complex) (O75530 whole entry partner): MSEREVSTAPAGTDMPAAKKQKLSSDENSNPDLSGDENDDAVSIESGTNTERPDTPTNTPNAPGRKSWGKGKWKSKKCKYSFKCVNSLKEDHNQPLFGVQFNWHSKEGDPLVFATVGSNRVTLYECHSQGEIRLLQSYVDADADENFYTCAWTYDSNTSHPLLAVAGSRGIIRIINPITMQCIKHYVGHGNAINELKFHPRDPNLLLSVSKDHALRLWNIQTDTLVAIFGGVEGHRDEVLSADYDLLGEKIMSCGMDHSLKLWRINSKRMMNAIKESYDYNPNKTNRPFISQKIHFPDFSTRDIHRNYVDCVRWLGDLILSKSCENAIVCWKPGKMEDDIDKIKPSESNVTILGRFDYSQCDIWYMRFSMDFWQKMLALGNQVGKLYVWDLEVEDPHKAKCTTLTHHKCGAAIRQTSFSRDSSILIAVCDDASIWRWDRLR
Sequence of wild-type EZH2 (PRC2 complex) (Q15022 whole entry partner): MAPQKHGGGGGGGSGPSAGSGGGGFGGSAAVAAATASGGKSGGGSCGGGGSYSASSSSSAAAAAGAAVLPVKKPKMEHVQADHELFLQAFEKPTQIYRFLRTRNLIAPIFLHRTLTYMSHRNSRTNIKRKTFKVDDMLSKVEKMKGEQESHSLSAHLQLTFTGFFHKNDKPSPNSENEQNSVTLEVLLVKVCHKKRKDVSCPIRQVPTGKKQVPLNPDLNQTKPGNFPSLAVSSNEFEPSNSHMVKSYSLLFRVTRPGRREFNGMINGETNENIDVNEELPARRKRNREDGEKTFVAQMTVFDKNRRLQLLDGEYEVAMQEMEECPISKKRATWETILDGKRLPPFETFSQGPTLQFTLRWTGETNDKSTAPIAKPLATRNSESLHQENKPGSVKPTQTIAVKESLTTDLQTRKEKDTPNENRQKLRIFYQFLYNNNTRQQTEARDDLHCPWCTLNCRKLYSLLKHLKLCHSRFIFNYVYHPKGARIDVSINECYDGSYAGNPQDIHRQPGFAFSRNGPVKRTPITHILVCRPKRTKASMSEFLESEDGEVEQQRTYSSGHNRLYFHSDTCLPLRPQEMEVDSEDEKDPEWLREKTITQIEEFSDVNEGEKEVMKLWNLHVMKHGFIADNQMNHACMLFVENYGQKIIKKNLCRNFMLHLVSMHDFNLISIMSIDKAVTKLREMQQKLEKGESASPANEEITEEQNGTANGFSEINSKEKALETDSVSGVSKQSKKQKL
Sequence of wild-type EZH2 (PRC2 complex) (Q09028 whole entry partner): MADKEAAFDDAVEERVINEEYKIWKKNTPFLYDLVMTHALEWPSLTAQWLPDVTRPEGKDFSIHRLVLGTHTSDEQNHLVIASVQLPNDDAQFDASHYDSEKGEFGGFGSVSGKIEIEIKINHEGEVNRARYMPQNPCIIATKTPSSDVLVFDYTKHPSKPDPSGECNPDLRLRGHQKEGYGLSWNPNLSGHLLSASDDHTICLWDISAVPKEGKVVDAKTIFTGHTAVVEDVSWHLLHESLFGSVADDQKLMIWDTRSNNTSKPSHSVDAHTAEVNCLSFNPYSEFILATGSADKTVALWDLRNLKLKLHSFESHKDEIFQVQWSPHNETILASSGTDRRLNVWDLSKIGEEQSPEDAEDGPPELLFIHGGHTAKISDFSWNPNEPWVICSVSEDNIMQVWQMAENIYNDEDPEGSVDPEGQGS

[4] = WSUDLCL2, Table 3B, read-out: ELISA H3K27me3 IC50
[5] = WSUDLCL2, Table 3B, read-out: WSU proliferation IC50
[6] = WSUDLCL2, Table 3A, read-out: H3K27Me3 ELISA IC50

Row | Compound | pIC50 [1, 4] | pIC50 [2, 5] | pIC50 [3] | pIC50 [1, 6] | other results
1 | CCN(c1cc(-c2ccc(N3CCCN(C)CC3)nc2)cc(C(=O)NCc2c(C)cc(C)[nH]c2=O)c1C)C1CCOCC1 [Compound 137] | 7.25 | 6.30 | – | – | –
2 | CCN(c1cc(-c2ccc(CN3CCOCC3)nc2)cc(C(=O)NCc2c(C)cc(C)[nH]c2=O)c1C)[C@H]1CC[C@H](N(C)C)CC1 [Compound 145] | 7.07 | 6.73 | – | – | –
3 | CCN(c1cc(C#CCN2CCOCC2)cc(C(=O)NCc2c(C)cc(C)[nH]c2=O)c1C)[C@H]1CC[C@H](N(C)C)CC1 [Compound 111] | – | – | > 8.30 | – | –
4 | CCN(c1cc(-c2ccc(N3CCN(C)CC3)nc2)cc(C(=O)NCc2c(C)cc(C)[nH]c2=O)c1C)C1C[C@@H](C)N[C@H](C)C1 (stereo partly shown) [Compound 124] | 6.78 | 6.80 | – | – | –
5 | CCN(c1cc(-c2ccc(OCCOC)cc2)cc(C(=O)NCc2c(OC)cc(C)[nH]c2=O)c1C)[C@H]1CC[C@H](N(C)C)CC1 [Compound 6b, 5-(((trans)-4-(dimethylamino)cyclohexyl)(ethyl)amino)-N-((4-methoxy-6-methyl-2-oxo-1,2-dihydropyridin-3-yl)methyl)-4′-(2-methoxyethoxy)-4-methyl-[1,1′-biphenyl]-3-carboxamide] | – | – | > 8.30 | 7.47 | –
6 | CCN(c1cc(-c2cnn(C)c2)cc(C(=O)NCc2c(C)cc(C)[nH]c2=O)c1C)[C@H]1CC[C@H](N(C)CCOC)CC1 [Compound 23] | – | – | > 8.30 | 6.40 | –
7 | CCN(c1cc(C#CC2CCN(C3CC3)CC2)cc(C(=O)NCc2c(C)cc(C)[nH]c2=O)c1C)C1CCOCC1 [Compound 157] | – | – | > 8.30 | 6.85 | –
8 | CCN(c1cc(C#CCN2CCCN(C)CC2)cc(C(=O)NCc2c(C)cc(C)[nH]c2=O)c1C)C1CCC(N(C)C)CC1 (stereo not shown) [Compound 112] | 6.75 | 6.10 | – | – | –
9 | CCN(c1cc(-c2ccc(COC)nc2)cc(C(=O)NCc2c(C(C)C)cc(C)[nH]c2=O)c1C)C1CCOCC1 [Compound 129] | 6.45 | 6.59 | – | – | –
10 | CCN(c1cc(-c2ccc(CN3CC(O)C3)c(F)c2)cc(C(=O)NCc2c(C)cc(C)[nH]c2=O)c1C)C1CCOCC1 [Compound 154] | 6.28 | 6.40 | – | – | –
11 | CCN(c1cc(-c2ccc(CN3CCOCC3)cc2)cc(C(=O)NCc2c(C)cc(C)[nH]c2=O)c1C)[C@H]1CC[C@H](N(C)CCOC)CC1 [Compound 26] | – | – | – | 7.06 | pIC50 ([2]; WSUDLCL2, Table 3A, read-out: WSU Prolif. IC50): 6.86
12 | CCN(c1cc(OC)cc(C(=O)NCc2c(C)cc(C)[nH]c2=O)c1C)[C@H]1CC[C@H](N(C)CCOC)CC1 [Compound 11, N-((4,6-dimethyl-2-oxo-1,2-dihydropyridin-3-yl)methyl)-3-(ethyl((trans)-4-((2-methoxyethyl)(methyl)amino)cyclohexyl)amino)-5-methoxy-2-methylbenzamide] | – | – | 8.20 | 6.17 | –
13 | CCN(c1cc(C#CC2CCN(C(C)=O)CC2)cc(C(=O)NCc2c(C)cc(C)[nH]c2=O)c1C)[C@H]1CC[C@H](N(C)C)CC1 [Compound 160] | – | – | 7.85 | 7.03 | –
14 | CCN(c1cc(OCCOC)cc(C(=O)NCc2c(C)cc(C)[nH]c2=O)c1C)[C@H]1CC[C@H](N(C)CCOC)CC1 [Compound 12, N-((4,6-dimethyl-2-oxo-1,2-dihydropyridin-3-yl)methyl)-3-(ethyl((trans)-4-((2-methoxyethyl)(methyl)amino)cyclohexyl)amino)-5-(2-methoxyethoxy)-2-methylbenzamide] | – | – | 7.54 | 6.51 | –
15 | CCN(c1cc(C#CCN2CCOCC2)cc(C(=O)NCc2c(C)cc(C)[nH]c2=O)c1C)C1CCC(N(C)C)CC1 (stereo not shown) [Compound 111] | 7.85 | 6.70 | – | – | –
16 | CCN(c1cc(-c2ccc(CN3CCC(O)CC3)nc2)cc(C(=O)NCc2c(C(C)C)cc(C)[nH]c2=O)c1C)C1CCOCC1 [Compound 140] | – | 6.15 | – | – | –
17 | CCN(c1cc(-c2ccc(CN3CCCCC3)nc2)cc(C(=O)NCc2c(C)cc(C)[nH]c2=O)c1C)C1CCOCC1 [Compound 139] | 7.02 | 7.60 | – | – | –
18 | CCN(c1cc(-c2ccc(N3CCC(O)CC3)nc2)cc(C(=O)NCc2c(C)cc(C)[nH]c2=O)c1C)[C@H]1CC[C@H](N(C)C)CC1 [Compound 143] | 7.74 | 6.56 | – | – | –
19 | CCN(c1cc(OCCCN2CCOCC2)cc(C(=O)NCc2c(C)cc(C)[nH]c2=O)c1C)[C@H]1CC[C@H](N(C)CCOC)CC1 [Compound 14, N-((4,6-dimethyl-2-oxo-1,2-dihydropyridin-3-yl)methyl)-3-(ethyl((trans)-4-((2-methoxyethyl)(methyl)amino)cyclohexyl)amino)-2-methyl-5-(3-morpholinopropoxy)benzamide] | – | – | – | 4.77 | –
20 | CCN(c1cc(-c2ccc(N3CC(O)C3)nc2)cc(C(=O)NCc2c(C)cc(C)[nH]c2=O)c1C)[C@H]1CC[C@H](N(C)C)CC1 [Compound 144] | 7.04 | 5.81 | – | – | –
21 | CCN(c1cc(-c2ccc(CN3CCC(O)CC3)c(F)c2)cc(C(=O)NCc2c(C)cc(C)[nH]c2=O)c1C)C1CCOCC1 [Compound 153] | – | 6.32 | – | – | –

Row | Compound | pIC50 [1, 4] | pIC50 [2, 5] | pIC50 [3] | pIC50 [1, 6] | other results
22 | CCN(c1cc(C#CC2CCN(C3COC3)CC2)cc(C(=O)NCc2c(C)cc(C)[nH]c2=O)c1C)C1CCOCC1 [Compound 159] | – | – | > 8.30 | 6.58 | –
23 | CCN(c1cc(C#CC2CCN(CC(F)(F)F)CC2)cc(C(=O)NCc2c(C)cc(C)[nH]c2=O)c1C)[C@H]1CC[C@H](N(C)C)CC1 [Compound 161] | – | – | > 8.30 | 7.47 | –
24 | CCN(c1cc(C#CC2CCN(C)CC2)cc(C(=O)NCc2c(C)cc(C)[nH]c2=O)c1C)C1CCOCC1 [Compound 105, N-((4,6-dimethyl-2-oxo-1,2-dihydropyridin-3-yl)methyl)-3-(ethyl(tetrahydro-2H-pyran-4-yl)amino)-2-methyl-5-((1-methylpiperidin-4-yl)ethynyl)benzamide] | – | – | – | 6.82 | –
25 | CCN(c1cc(-c2cnc(C)cn2)cc(C(=O)NCc2c(C)cc(C)[nH]c2=O)c1C)[C@H]1CC[C@H](N(C)CCOC)CC1 [Compound 18] | – | – | 8.07 | 6.26 | –
26 | CCN(c1cc(-c2ccc(N3CCN(C)CC3)nc2)cc(C(=O)NCc2c(C)cc(C)[nH]c2=O)c1C)C1CCN(C)CC1 [Compound 125] | 6.54 | 6.81 | – | – | –
27 | CCN(c1cc(-c2ccc(CN3CCCN(C)CC3)nc2)cc(C(=O)NCc2c(C)cc(C)[nH]c2=O)c1C)C1CCOCC1 [Compound 135] | 6.72 | 6.75 | – | – | –
28 | CCN(c1cc(-c2ccc(OCCOCCOC)cc2)cc(C(=O)NCc2c(C)cc(C)[nH]c2=O)c1C)[C@H]1CC[C@H](N(C)C)CC1 [Compound 6, N-((4,6-dimethyl-2-oxo-1,2-dihydropyridin-3-yl)methyl)-5-(((trans)-4-(dimethylamino)cyclohexyl)(ethyl)amino)-4′-(2-(2-methoxyethoxy)ethoxy)-4-methyl-[1,1′-biphenyl]-3-carboxamide] | – | – | 7.81 | 7.24 | –
29 | CCN(c1cc(-c2cnccn2)cc(C(=O)NCc2c(C)cc(C)[nH]c2=O)c1C)[C@H]1CC[C@H](N(C)CCOC)CC1 [Compound 22] | – | – | 7.55 | 5.98 | –
30 | CCN(c1cc(-c2ccc(OCCOC)nc2)cc(C(=O)NCc2c(C)cc(C)[nH]c2=O)c1C)[C@H]1CC[C@H](N(C)C)CC1 [Compound 5, N-((4,6-dimethyl-2-oxo-1,2-dihydropyridin-3-yl)methyl)-3-(((trans)-4-(dimethylamino)cyclohexyl)(ethyl)amino)-5-(6-(2-methoxyethoxy)pyridin-3-yl)-2-methylbenzamide] | – | – | 7.88 | – | –
31 | CCN(c1cc(-c2ccc(CN3CCOCC3)nc2)cc(C(=O)NCc2c(C(F)(F)F)cc(C)[nH]c2=O)c1C)C1CCOCC1 [Compound 142] | 6.16 | 5.70 | – | – | –
32 | CCN(c1cc(-c2ccc(OC)nc2)cc(C(=O)NCc2c(C)cc(C)[nH]c2=O)c1C)C1CCOCC1 [Compound 130] | 6.66 | 6.66 | – | – | –
33 | CCN(c1cc(C#CC2CCN(C3CCC3)CC2)cc(C(=O)NCc2c(C)cc(C)[nH]c2=O)c1C)C1CCOCC1 [Compound 158] | – | – | > 8.30 | 6.67 | –
34 | CCN(c1cc(-c2ccc(OC3CCN(C)CC3)nc2)cc(C(=O)NCc2c(C)cc(C)[nH]c2=O)c1C)C1CCOCC1 [Compound 133] | – | 6.30 | – | – | –
35 | CCN(c1cc(-c2ccc(CN3CCC[C@H](O)C3)nc2)cc(C(=O)NCc2c(C(C)C)cc(C)[nH]c2=O)c1C)C1CCOCC1 [Compound 141] | 6.46 | 6.91 | – | – | –
36 | CCN(c1cc(OCCN2CCOCC2)cc(C(=O)NCc2c(C)cc(C)[nH]c2=O)c1C)[C@H]1CC[C@H](N(C)CCOC)CC1 [Compound 13, N-((4,6-dimethyl-2-oxo-1,2-dihydropyridin-3-yl)methyl)-3-(ethyl((trans)-4-((2-methoxyethyl)(methyl)amino)cyclohexyl)amino)-2-methyl-5-(2-morpholinoethoxy)benzamide] | – | – | – | < 4.30 | –
37 | CCN(c1cc(C#CC2CCN(C3CN(C)C3)CC2)cc(C(=O)NCc2c(C)cc(C)[nH]c2=O)c1C)C1CCOCC1 [Compound 162] | – | – | 7.92 | – | –
38 | CCN(c1cc(-c2cnc(OC)nc2)cc(C(=O)NCc2c(C)cc(C)[nH]c2=O)c1C)[C@H]1CC[C@H](N(C)CCOC)CC1 [Compound 20] | – | – | > 8.30 | – | –
39 | CCN(c1cc(-c2cnc(C)nc2)cc(C(=O)NCc2c(C)cc(C)[nH]c2=O)c1C)[C@H]1CC[C@H](N(C)CCOC)CC1 [Compound 19] | – | – | 8.01 | – | –
40 | CCN(c1cc(-c2ccc(CN3CCCN(C)CC3)nc2)cc(C(=O)NCc2c(C(C)C)cc(C)[nH]c2=O)c1C)C1CCOCC1 [Compound 136] | 6.59 | 6.25 | – | – | –
41 | CCN(c1cc(C#CC2CCN(C)CC2)cc(C(=O)NCc2c(OC)cc(C)[nH]c2=O)c1C)C1CCOCC1 [Compound 163] | – | – | > 8.30 | 7.37 | –
42 | CCN(c1cc(-c2ccc(CN3CCCC3)nc2)cc(C(=O)NCc2c(C)cc(C)[nH]c2=O)c1C)C1CCOCC1 [Compound 138] | 6.54 | 6.75 | – | – | –
